Results as given in article PMC10144134, “Characterization of Potent ABCG2 Inhibitor Derived from Chromone: From the Mechanism of Inhibition to Human Extracellular Vesicles for Drug Delivery” (Pharmaceutics, 2023).
“Also recorded” adds a separate entry of the source. Values belong to the molecule of their own block, whether it stands above or below them.

Experiments:
ABCG2 [1] = target: T1, ABCG2 (Homo sapiens, UniProt Q9UNQ0); assay: 5D3 shift assay; type: cell-based; set-up: expressed in transfected cells; host or cells: HEK293 (stably transfected, G418 selection; gift of Dr. Attilio Di Pietro); conditions: C4a 10 µM, Ko143 2 µM, HEK293-ABCG2
T1 sequence (Q9UNQ0 1-655): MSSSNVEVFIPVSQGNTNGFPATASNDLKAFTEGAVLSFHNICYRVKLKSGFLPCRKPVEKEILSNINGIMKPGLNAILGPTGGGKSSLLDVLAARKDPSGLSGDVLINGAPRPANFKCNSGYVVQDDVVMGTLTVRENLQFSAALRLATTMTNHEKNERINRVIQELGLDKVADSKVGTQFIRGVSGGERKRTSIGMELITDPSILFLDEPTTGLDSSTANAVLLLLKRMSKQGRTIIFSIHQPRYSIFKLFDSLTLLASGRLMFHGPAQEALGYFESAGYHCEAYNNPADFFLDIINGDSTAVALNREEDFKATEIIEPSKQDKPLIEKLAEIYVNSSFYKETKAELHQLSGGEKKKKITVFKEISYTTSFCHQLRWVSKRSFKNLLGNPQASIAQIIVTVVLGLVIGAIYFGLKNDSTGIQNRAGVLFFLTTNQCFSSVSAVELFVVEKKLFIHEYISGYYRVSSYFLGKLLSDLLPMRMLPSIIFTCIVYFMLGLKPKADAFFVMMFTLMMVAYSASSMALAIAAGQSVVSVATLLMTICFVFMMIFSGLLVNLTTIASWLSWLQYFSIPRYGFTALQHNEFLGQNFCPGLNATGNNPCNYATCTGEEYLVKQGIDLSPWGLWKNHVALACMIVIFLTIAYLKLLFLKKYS
Method: HEK293-ABCG2 cells were seeded into 24-well plates at a density of 2 × 10^5 cells/well. When the confluence reached 90–95%, the medium was removed and the cells were exposed to inhibitors for 30 min at 37 °C. Then, the cell monolayer was washed with PBS at 37 °C, trypsinized and resuspended with 300 µL of PBS. Cells were centrifuged (1000× g for 3 min). The pellet was resuspended in 100 μL of PBS/BSA (40 μg/mL of BSA) and the primary antibody (mouse anti-human CD338 Clone 5D3, BD Pharmingen, San Diego, CA, USA) was added (1:100) for 30 min at 37 °C. Cells were centrifuged (1000× g, 3 min), the supernatant removed and the pellet resuspended with 100 μL of PBS containing the secondary antibody (goat anti-mouse conjugated with Phycoerythrin, BD Pharmingen, San Diego, CA, USA) at 1:200 for 30 min at 37 °C. Then, cells were centrifuged, the supernatant removed and the pellet was resuspended in 300 μL of PBS. The analysis was performed using a FACS Calibur (Becton Dickinson, San Diego, CA, USA).

ABCG2 [2] = target: T1, ABCG2; assay: Thermostabilization assay on ATPase activity of ABCG2; type: biochemical; set-up: expressed in transfected cells; host or cells: HEK293 (stably transfected, G418 selection; gift of Dr. Attilio Di Pietro); conditions: C4a 10 μM
Method: (§1) The thermal stability assay was performed according to previous reports. […] To evaluate the effect of C4a over thermal stability, each sample was prepared with 12.5 mM MgCl2 or 6.25 mM ATP and incubated at a temperature ranging from 37 to 71 °C for 10 min using a thermocycler C1000 Touch (Bio-Rad, Hercules, CA, USA). After incubation, 10 µL of 25 mM ATP or 50 mM MgCl2 (5 and 10 mM final concentration, respectively) was added and incubated at 37 °C/20 min to allow ATP hydrolysis. The reaction was stopped with the addition of 50 µL of Pi reagent containing 1% ammonium molybdate, 2.5 N H2SO4 and 0.014% potassium-antimony tartrate. To evaluate the absorbance, the samples were transferred to a 96-well plate (50 µL/well), then 150 µL of 0.33% sodium ascorbate solution was added. The absorbance was measured after 10 min incubation at room temperature using the microplate reader Spectramax iD3 (Molecular Devices, San Jose, CA, USA). The sensitive activity to vanadate (Vi) was calculated as the difference between the activity in the absence of Vi minus the activity in the presence of Vi at each temperature.

ABCG2 [3] = target: T1, ABCG2; assay: ATPase activity, High-Five ABCG2 total membrane vesicles
Method: (§4) The absorbance was measured after 10 min incubation at room temperature using the spectrophotometer Ultrospec 3100 pro (Amersham Biosciences, Amersham, UK) at 880 nm wavelength.

Water solubility = type: physicochemical; conditions: aqueous
ABCG2 [4] = target: T1, ABCG2; assay: Cell-based transport assay by flow cytometry, HEK293-ABCG2; set-up: expressed in transfected cells; host or cells: HEK293 (stably transfected, G418 selection; gift of Dr. Attilio Di Pietro)
Method: (§2) Cell lines (HEK293-ABCG, NIH3T3-ABCB1 and BHK21-ABCC1) were kept at 37 °C in the presence of 5% CO2 in DMEM high glucose (Gibco, Sao Paulo, Brazil) supplemented with 10% Fetal Bovine Serum (Gibco, Sao Paulo, Brazil) and 1% antibiotic (penicillin/streptomycin–Hyclone Laboratories, Logan, UT, USA). The stably transfected cells were kept with specific selection agent for each ABC transporter: ABCG2–G418 0.75 mg/mL, P-gp–Colchicine 60 ng/mL, MRP1–Methotrexate 0.1 mg/mL. The cells HEK293-ABCG2, NIH3T3-ABCB1 and BHK21-ABCC1, overexpressing ABCG2, P-gp and MRP1, respectively, were kindly provided by Dr. Attilio Di Pietro (IBCP, Lyon, France).
Cells were seeded into 24-well plates at a density of 1 × 10^5 cells/well and incubated for 48 h at 37 °C and 5% of CO2. When the confluence reached 90–95%, the medium was removed and the cells were exposed to inhibitors and substrates for 30 min at 37 °C. Then, the cell monolayer was washed with PBS at 37 °C, trypsinized and resuspended with 300 µL of cold PBS. The intracellular fluorescence was recorded by flow cytometry (FACS Calibur–Becton Dickinson, San Diego, CA, USA). At least 10,000 events were acquired. […] The inhibition percent was calculated as follows: % of inhibition = ((C − S))/((I − S)) × 100, where “C” represents the treatment with substrate + compound in test, “S” represents the treatment with substrate alone and “I” represents the treatment with substrate + reference inhibitor.
This study was approved by the Ethics Committee of SCS/UFPR (CAAE 51428521.2.0000.0102). Human blood (9 mL) was collected in tubes containing 8 mM of EGTA and centrifuged at 425× g for 10 min at room temperature. Human plasma (~4 mL) was separated in a new tube. In the tube containing blood cells (~5 mL), the same volume of RPMI (~5 mL) was added. The material was homogenized and centrifuged at 425× g for 10 min at room temperature. The supernatant was discarded, and the pellet of cells was centrifuged again at 425× g for 10 min, then, the supernatant was discarded, and the pellet was suspended in 5 mL of RPMI containing 2 mM of CaCl2. After 1 h of incubation at 37 °C, the material was centrifuged at 425× g for 10 min at 10 °C. Additionally, the tube containing the human plasma was also centrifuged at 425× g for 10 min at 10 °C. The supernatant from both tubes (human cells and plasma) was centrifuged at 4000 g for 10 min at 10 °C. The supernatant was separated and centrifuged at […] for 120 min at 10 °C. The supernatant was discarded and the pellet containing the vesicles was suspended in 60 µL of PBS. The protein concentration was quantified by Bradford assay. For each condition, 10 µL of the vesicles in PBS was diluted by adding 190 µL of PBS. […]

ABCG2 [5] = target: T1, ABCG2; assay: Cell-based transport assay by confocal microscopy; set-up: expressed in transfected cells; host or cells: HEK293 (stably transfected, G418 selection; gift of Dr. Attilio Di Pietro); conditions: 10 µM, hoechst 33342 2 µM
Method: Cells were seeded into 24-well plates at a density of 1 × 10^5 cells/well containing coverslips for microscopy and incubated for 48 h at 37 °C and 5% of CO2. Cells that adhered to the coverslips were treated with C4a and hoechst 33342 for 30 min at 37 °C. Then, the cell monolayer was washed with PBS at 37 °C and the coverslips removed from the plate and placed on slides for microscopy. The slides were then read in a confocal microscope Nikon A1R MP + (NIKON, Tokyo, Japan) using an oil-immersed 40× objective (with the numerical aperture of 1.15). A laser of 405 nm was used for excitation and the fluorescence emission was recorded using a bandpass filter of 425–475 nm. The software Nis Elements 4.20 (NIKON, Tokyo, Japan) was used for visualization of the images.

P-gp [6] = target: T2, P-gp (Homo sapiens, UniProt P08183); assay: Cell-based transport assay by flow cytometry, NIH3T3-ABCB1; conditions: 10 µM, rhodamine 123 10 µM
Method: as §2
Cells were seeded into 24-well plates at a density of 1 × 10^5 cells/well and incubated for 48 h at 37 °C and 5% of CO2. […] The intracellular fluorescence was recorded by flow cytometry (FACS Calibur–Becton Dickinson, San Diego, CA, USA). […] The inhibition percent was calculated as follows: % of inhibition = ((C − S))/((I − S)) × 100, where “C” represents the treatment with substrate + compound in test, “S” represents the treatment with substrate alone and “I” represents the treatment with substrate + reference inhibitor.
This study was approved by the Ethics Committee of SCS/UFPR (CAAE 51428521.2.0000.0102). […] The protein concentration was quantified by Bradford assay. […]

ABCG2 [7] = target: T1, ABCG2; set-up: expressed in transfected cells; host or cells: HEK293 (stably transfected, G418 selection; gift of Dr. Attilio Di Pietro); conditions: read-out: IC50 of ABCG2 inhibition; cited from earlier work
HEK293-ABCG2 cells = assay: MTT chemosensitization assay, HEK293-ABCG2; type: cell-based, human
Method: (§3) HEK293 WT (wild type) and HEK293-ABCG2 cells were seeded (2.5 × 10^4 cell/well) into a 96-well plate and incubated for 24 h. Cells were concomitantly treated with EVs […]C4a (0.1, 1 and 10 μM) and SN-38 (10 nM) for 72 h. After this period, the medium was removed, cells were washed with PBS (100 μL) and incubated with MTT solution (100 μL of solution 0.5 mg/mL in PBS) for 4 h. Then, the solution was removed, and the formazan crystals were dissolved with 100 μL of ethanol/DMSO (1:1). The absorbance was measured using a microplate reader at 595 nm (Bio-Rad iMark, Hercules, CA, USA).

P-gp [8] = target: T2, P-gp; assay: ATPase activity, High-Five P-gp total membrane vesicles
Method: as §4

MRP1 = test system: T3, MRP1; assay: Cell-based transport assay by flow cytometry, BHK21-ABCC1; set-up: species or system human; conditions: 10 µM, calcein-AM 0.2 µM
T3 construct: expressed in transfected cells; host or cells: BHK21 (stably transfected, methotrexate selection; gift of Dr. Attilio Di Pietro)
Method: as §2
Cells were seeded into 24-well plates at a density of 1 × 10^5 cells/well and incubated for 48 h at 37 °C and 5% of CO2. When the confluence reached 90–95%, the medium was removed and the cells were exposed to inhibitors and substrates for 30 min at 37 °C. […] The intracellular fluorescence was recorded by flow cytometry (FACS Calibur–Becton Dickinson, San Diego, CA, USA). […] The inhibition percent was calculated as follows: % of inhibition = ((C − S))/((I − S)) × 100, where “C” represents the treatment with substrate + compound in test, “S” represents the treatment with substrate alone and “I” represents the treatment with substrate + reference inhibitor.

P-gp [9] = target: T2, P-gp; assay: Thermostabilization assay on ATPase activity of P-gp; type: biochemical; set-up: made in house; host or cells: High-Five insect cells (total membrane vesicles); conditions: C4a 10 μM
Method: as §1

ABCG2 versus P-gp = target: T4, ABCG2 versus P-gp (Homo sapiens, UniProt Q9UNQ0); assay: in vitro; conditions: high-five membrane vesicles, pH 6.8
T4 sequence (Q9UNQ0 1-655): T1 sequence (Q9UNQ0 1-655)
Method: as §4

[10] = test system: implanted ABCG2-positive tumors; conditions: cited from earlier work
[11] = set-up: method as in PMID 17317193; conditions: cited from earlier work
HEK293 WT cells = assay: MTT cell viability, HEK293 WT; type: cell-based, human; conditions: SN38 10 nM, 72 h
Method: as §3

T2 sequence (P08183 whole entry): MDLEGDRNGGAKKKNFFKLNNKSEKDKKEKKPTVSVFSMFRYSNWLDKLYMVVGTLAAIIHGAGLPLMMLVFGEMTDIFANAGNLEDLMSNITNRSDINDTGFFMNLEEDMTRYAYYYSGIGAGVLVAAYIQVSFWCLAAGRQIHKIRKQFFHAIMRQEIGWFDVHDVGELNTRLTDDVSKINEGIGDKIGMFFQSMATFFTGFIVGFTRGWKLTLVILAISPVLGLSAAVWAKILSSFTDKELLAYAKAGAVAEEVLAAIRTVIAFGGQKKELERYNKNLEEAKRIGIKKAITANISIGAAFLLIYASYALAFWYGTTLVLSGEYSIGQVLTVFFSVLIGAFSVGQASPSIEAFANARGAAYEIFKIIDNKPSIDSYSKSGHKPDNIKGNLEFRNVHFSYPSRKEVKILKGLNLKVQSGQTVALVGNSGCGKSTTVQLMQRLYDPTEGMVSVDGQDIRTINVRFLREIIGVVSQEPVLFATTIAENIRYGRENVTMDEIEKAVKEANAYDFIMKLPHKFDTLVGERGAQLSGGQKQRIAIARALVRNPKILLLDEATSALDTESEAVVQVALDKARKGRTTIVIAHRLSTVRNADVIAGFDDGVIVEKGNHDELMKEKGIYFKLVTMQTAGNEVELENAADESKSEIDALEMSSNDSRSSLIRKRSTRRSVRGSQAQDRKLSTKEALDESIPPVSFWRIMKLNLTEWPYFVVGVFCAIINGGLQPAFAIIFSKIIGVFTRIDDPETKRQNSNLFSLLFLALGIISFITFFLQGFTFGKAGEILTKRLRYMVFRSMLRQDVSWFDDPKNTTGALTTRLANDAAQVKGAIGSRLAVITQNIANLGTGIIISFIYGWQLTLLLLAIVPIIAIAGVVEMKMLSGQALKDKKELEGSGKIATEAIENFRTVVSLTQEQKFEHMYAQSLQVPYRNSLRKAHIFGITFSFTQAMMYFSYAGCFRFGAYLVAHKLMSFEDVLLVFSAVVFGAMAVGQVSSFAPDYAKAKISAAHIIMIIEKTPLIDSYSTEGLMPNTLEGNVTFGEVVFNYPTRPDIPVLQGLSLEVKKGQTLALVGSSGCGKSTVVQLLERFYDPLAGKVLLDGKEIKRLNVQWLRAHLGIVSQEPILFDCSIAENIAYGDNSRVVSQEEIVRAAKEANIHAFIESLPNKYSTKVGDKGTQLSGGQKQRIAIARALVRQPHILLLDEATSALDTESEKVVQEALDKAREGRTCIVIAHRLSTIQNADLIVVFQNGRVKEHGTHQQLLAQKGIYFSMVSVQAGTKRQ

binding of conformational antibody 5D3 (ABCG2 [1]): increased the binding of 5D3
effect on thermal stability of ABCG2 (ABCG2 [2]): mild effect
IT50, ABCG2 -ATP (ABCG2 [2]; absence of ATP): 50.01 ± 0.26 ºC
IT50 (temperature that reduces 50% of the ATPase activity), ABCG2 +ATP (ABCG2 [2]; presence of ATP): 55.44 ± 0.25 ºC
EC50 (ABCG2 [3]): 64 nM
solubility (Water solubility): low solubility
inhibition of bodipy-prazosin efflux mediated by ABCG2 (ABCG2 [4]; 10 µM, bodipy-prazosin 0.2 µM): inhibited the efflux of all
inhibition of pheophorbide-a efflux mediated by ABCG2 (ABCG2 [4]; 10 µM, pheophorbide a 10 µM): inhibited the efflux of all
inhibition of ABCG2 by supernatant (human EV preparation) (ABCG2 [4]; C4a free in supernatant, even at lower concentration tested 0.1 µM): strongly inhibited ABCG2
inhibition of hoechst 33342 efflux mediated by ABCG2 (confocal microscopy) (ABCG2 [5]): inhibited the efflux of all
inhibition of rhodamine 123 efflux mediated by P-gp (P-gp [6]): did not inhibit
EC50 (P-gp [8]): 4300 nM
effect on ATP-induced thermostabilization of P-gp (P-gp [9]): preventing thermostabilization
IT50, P-gp -ATP (P-gp [9]; absence of ATP): 50.02 ± 0.31 ºC
Compound: COc1ccc2[nH]cc(CCNC(=O)c3cc(=O)c4c(OCc5ccccc5Br)cccc4o3)c2c1 [C4a, chromone 4a]
inhibition of mitoxantrone efflux mediated by ABCG2 (ABCG2 [4]; 10 µM, mitoxantrone 10 µM, HEK293-ABCG2): completely inhibited; also recorded: inhibited the efflux of all
IC50 (ABCG2 [7]): 86 nM
reversion of the resistance phenotype mediated by ABCG2, supernatant (HEK293-ABCG2 cells; supernatant containing C4a free at 0.1 to 10 µM + SN38 10 nM): complete reversion
inhibition of calcein efflux mediated by MRP1 (MRP1): did not inhibit
selectivity ratio at 20 min (ABCG2 versus P-gp): 67

solubility (Water solubility): low solubility
Compound: COc1ccc2[nH]cc(CCNC(=O)c3cc(=O)c4c(OCc5ccc(Br)cc5)cccc4o3)c2c1 [MBL-II-141]
growth of implanted ABCG2-positive tumors in mice ([10]; in combination with irinotecan): inhibiting the growth of implanted ABCG2-positive tumors
IC50 (ABCG2 [7]): 260 nM

Compound: COc1ccc2c(=O)c3cccc(C(=O)NCc4ccc(OC)c(OC)c4)c3[nH]c2c1 [MBLI-87]
sensitization of xenografic tumors overexpressing ABCG2 to irinotecan [10]: successfully sensitized xenografic tumors overexpressing ABCG2 to irinotecan
IC50 (ABCG2 [7]): 450 nM
cytotoxicity [11]: low cytotoxicity

Compound: CCc1c2c(nc3ccc(O)cc13)-c1cc3c(c(=O)n1C2)COC(=O)[C@]3(O)CC [SN38, reference compound]
cytotoxic effect on wild-type HEK293 cells (HEK293 WT cells): highly cytotoxic
cell viability of cells overexpressing ABCG2 (HEK293-ABCG2 cells; SN38 10 nM, 72 h, MTT): mild decrease in the cell viability
